According to the supplement of paper PMC10307832:

Legend:
Experiment in all cases: relative viability (nuclei count vs DMSO), 5 days (fraction); higher = more cells survive
FH535 + Phenformin = compound: CC1=C(C=CC(=C1)[N+](=O)[O-])NS(=O)(=O)C2=C(C=CC(=C2)Cl)Cl [FH535] + N=C(N)NC(=N)NCCc1ccccc1 [Phenformin] (partner 250 µM)
Summary of the method: (§1)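 Values are medians from duplicate plates. Each reflects relative viability, defined as the nuclei count of treated wells over that of vehicle wells. Lung cancer cell lines in 1536-well plates were pin-tool dosed one day after seeding with one drug alone or with a fixed anchor-drug dose plus five library-drug doses (not always all listed) in √10 steps, then fixed, stained and imaged at 4× after 5 days.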

FH535 + Tozasertib = compound: CC1=C(C=CC(=C1)[N+](=O)[O-])NS(=O)(=O)C2=C(C=CC(=C2)Cl)Cl [FH535] + Cc1cc(Nc2cc(N3CCN(C)CC3)nc(Sc3ccc(NC(=O)C4CC4)cc3)n2)n[nH]1 [Tozasertib] (partner 0.1 µM)
Summary of the method: as §1

FH535 + Bortezomib = compound: CC1=C(C=CC(=C1)[N+](=O)[O-])NS(=O)(=O)C2=C(C=CC(=C2)Cl)Cl [FH535] + CC(C)C[C@H](NC(=O)[C@H](Cc1ccccc1)NC(=O)c1cnccn1)B(O)O [Bortezomib] (partner 0.002 µM)
Summary of the method: as §1

FH535 + Linsitinib = compound: CC1=C(C=CC(=C1)[N+](=O)[O-])NS(=O)(=O)C2=C(C=CC(=C2)Cl)Cl [FH535] + C[C@]1(O)C[C@@H](c2nc(-c3ccc4ccc(-c5ccccc5)nc4c3)c3c(N)nccn32)C1 [Linsitinib] (partner 1 µM)
Summary of the method: as §1

FH535 + Pemetrexed = compound: CC1=C(C=CC(=C1)[N+](=O)[O-])NS(=O)(=O)C2=C(C=CC(=C2)Cl)Cl [FH535] + Nc1nc2[nH]cc(CCc3ccc(C(=O)N[C@@H](CCC(=O)O)C(=O)O)cc3)c2c(=O)[nH]1 [Pemetrexed] (partner 0.2 µM)
Summary of the method: as §1

Cell Line	relative viability (FH535 + Phenformin; first compound 0.04 µM)	relative viability (FH535 + Phenformin; first compound 0.1265 µM)	relative viability (FH535 + Phenformin; first compound 0.4 µM)	relative viability (FH535 + Phenformin; first compound 1.265 µM)	relative viability (FH535 + Tozasertib; first compound 0.04 µM)	relative viability (FH535 + Tozasertib; first compound 0.1265 µM)	relative viability (FH535 + Tozasertib; first compound 0.4 µM)	relative viability (FH535 + Tozasertib; first compound 1.265 µM)	relative viability (FH535 + Bortezomib; first compound 0.04 µM)	relative viability (FH535 + Bortezomib; first compound 0.1265 µM)	relative viability (FH535 + Bortezomib; first compound 0.4 µM)	relative viability (FH535 + Bortezomib; first compound 1.265 µM)	relative viability (FH535 + Linsitinib; first compound 0.04 µM)	relative viability (FH535 + Linsitinib; first compound 0.1265 µM)	relative viability (FH535 + Linsitinib; first compound 0.4 µM)	relative viability (FH535 + Linsitinib; first compound 1.265 µM)	relative viability (FH535 + Pemetrexed; first compound 0.04 µM)	relative viability (FH535 + Pemetrexed; first compound 0.1265 µM)	relative viability (FH535 + Pemetrexed; first compound 0.4 µM)	relative viability (FH535 + Pemetrexed; first compound 1.265 µM)
NCI-H2023	0.384	0.375	0.314	0.191	0.296	0.371	0.354	0.301	0.816	0.995	1.03	0.726	0.677	0.631	0.745	0.629	0.194	0.219	0.249	0.21
NCI-H2087	0.425	0.398	0.286	0.155	0.252	0.223	0.276	0.212	0.7	0.57	0.719	0.528	0.98	0.994	0.87	0.512	0.656	0.694	0.663	0.624
PC-14	0.571	0.708	0.516	0.331	0.507	0.693	0.615	0.617	0.938	0.885	0.815	0.759	0.996	0.937	0.959	0.851	0.12	0.137	0.13	0.123
LC-2-ad	0.482	0.58	0.425	0.368	0.437	0.439	0.578	0.457	0.802	0.987	0.892	0.722	0.846	0.829	0.771	0.502	0.271	0.296	0.249	0.31
HCC-78	0.626	0.783	0.63	0.592	0.462	0.397	0.409	0.414	0.475	0.471	0.593	0.434	0.456	0.557	0.558	0.527	0.837	0.868	0.904	0.871
LOU-NH91	0.554	0.471	0.424	0.392	0.634	0.68	0.633	0.33	0.504	0.497	0.527	0.37	0.861	1.02	0.932	0.506	0.377	0.428	0.429	0.457
NCI-H1734		0.394	0.373	0.269		0.26	0.263	0.297	0.775	0.894	0.771	0.828	0.838	0.939	0.876	0.866	0.45	0.434	0.415	0.388
NCI-H596	0.794	0.623	0.614	0.69	0.947	0.992	0.931	0.696	0.915	1.09	1.19	0.952	1.1	1.13	1.1	1.01	0.499	0.507	0.454	0.507
